This is an account of results in patent publication US7094400B1, “Transkaryotic implantation” (Shire Human Genetic Therapies, Inc., priority 1987, dated 2006).

Molecules are shown by their SMILES.

In experiment [1] the test system is mouse metallothionein-I promoter. The experiment in a line: Zinc induction of hGH expression from intraperitoneally implanted cells (metallothionein-I promoter). The class given is in vivo, mice. As to conditions: 76 mM ZnSO4 in drinking water; IP stably transfected cells. As for the experimental part:
As described above, the plasmid pXGH5 contains the mouse metallothionein-I promoter. In order to determine whether the implanted cells were sufficiently healthy to respond to their local environment, the ability of zinc to induce higher levels of human growth hormone expression was determined. Stably transfected cells, prepared as described in Example 1B, were implanted intraperitoneally in mice, some of which were given 76 mM ZnSO4 in their drinking water. The animals treated with zinc expressed ten-fold more human growth hormone in their serum than did those with no treatment. […] Furthermore, RNA prepared from cells recovered from subcapsular implants contained the correct mMT-I/human growth hormone fusion mRNA (FIG. 5). […] Of substantial importance is the fact that the cells, once in place in the animal, could still be modulated by external means.

The subject of experiment [2] is Transfected cells which expressed human growth hormone. Kind of experiment: Effects of immunosuppression on IP cells, serum human growth hormone. As to conditions: for serum human growth hormone: in ng/mL. The class given is in vivo. The source says: If the transfected cells are destroyed by transplant rejection, immunosuppression should prolong the functional life of the implant.

Regarding `O=S(=O)([O-])[O-].[Zn+2]` [ZnSO4], the “human growth hormone in serum versus no treatment” value in experiment [1] is “ten-fold more”.

Regarding `C[C@@H]1C[C@H]2[C@@H]3CCC4=CC(=O)C=C[C@]4(C)[C@@]3(F)[C@@H](O)C[C@]2(C)[C@@]1(O)C(=O)CO` [Dexamethasone, dexamethasone], the “serum human growth hormone detectable until” value in experiment [2] was 48 days post-implantation. Also, the “serum human growth hormone” value is reported as 94.8 +/− 9.2 in experiment [2] (day 1 post-implantation); 86.6 +/− 10.5 in experiment [2] (day 2 post-implantation); 54.3 +/− 14.2 in experiment [2] (day 4 post-implantation); 28.0 +/− 13.6 in experiment [2] (day 21 post-implantation); 13.9 +/− 6.9 in experiment [2] (day 27 post-implantation); 7.5 +/− 6.1 in experiment [2] (day 41 post-implantation). Besides, the entries for the “serum human growth hormone” value in experiment [2] (day 48 post-implantation), in experiment [2] (days 8 to 10 post-implantation) and in experiment [2] (days 15 to 17 post-implantation) were 2.7 +/− 2.2, 99.3 +/− 48.0 and 28.3 +/− 18.1, respectively.
